Source: patent US20050238589A1, “Methods and compositions for preventing or treating periodontal diseases” (priority 2004, published 2005)

Legend:
[1] = test system: PGE2 generation from gingival homogenates; details: ElAttar et al. 1984; cited from earlier work
[2] = test system: COX-derived eicosanoids in crevicular fluid; details: cited from earlier work
[3] = test system: CF-PGE2 levels; details: in humans; cited from earlier work
[4] = test system: P. gingivalis and ligature-induced experimental periodontitis; assay: Morphometric analysis of mandibles in rabbit experimental periodontitis; type: in vivo, New Zealand White rabbits; details: topical resolvin E1 before P. gingivalis application, every other day for 6 weeks; versus vehicle (ethanol)
[5] = test system: P. gingivalis and ligature-induced experimental periodontitis; assay: Histological analysis (HE) in rabbit experimental periodontitis; type: in vivo, New Zealand White rabbits; details: topical application; rabbits with P. gingivalis and ligature placement
[6] = test system: P. gingivalis and ligature-induced experimental periodontitis; assay: Radiographic analysis (Bjorn technique) in rabbit experimental periodontitis; type: in vivo, New Zealand White rabbits
[7] = p<0.05 for vehicle group compared to resolvin E1 or ligature alone

Row | Structure (SMILES) | PGE2 generation from gingival homogenates [1] | CF-PGE2 levels, gingival inflammation, tooth attachment loss and bone loss ([2]; Pauletto et al. 1997, in some cases bone gain) | COX-derived eicosanoids in crevicular fluid (CF) ([2]; animals taking flurbiprofen) | CF-PGE2 levels [3] | bone destruction (defleshed bone specimens, FIG. 1) [4] | gingival inflammation (gingival tissue of mandibles, FIG. 1) [4] | bone loss, histology (FIG. 6) [5] | inflammatory changes, histology (FIG. 6) [5] | percentage of bone loss calculated by the Bjorn technique (FIG. 5) [6, 7] | percentage of tooth in bone measured on radiographs (FIG. 4) [6, 7] | bone loss, radiographic appearance of alveolar bone (FIG. 3) ([6]; topical application, bone at the same level as ligature alone)
1 | CC(C(=O)O)c1ccc(-c2ccccc2)c(F)c1 (centres unmarked) [flurbiprofen] | significantly inhibited | reduced | decreased | dramatically decreased | – | – | – | – | – | – | –
2 | CC[C@@H](O)/C=C/C=C\C[C@@H](O)/C=C/C=C/C=C\[C@@H](O)CCCC(=O)O [resolvin E1] | – | – | – | – | prevented | prevented | prevented | prevented | prevents the destructive effects | maintenance of bone levels | prevented the bone loss
